Source: PubChem BioAssay AID1963841 (Molecular Pharmacology Branch, DTP, NCI, 2024)
pIC50: −log10 of the molar value.

Tested on: 439559-082-T-J2-PDC spheroid viability
Assay: Anticancer human tumor 439559-082-T-J2-PDC patient-derived colon adenocarcinoma cell line growth inhibition [POLQ]
Conditions: spheroids with HUVEC and MSC; for pIC50: curve of first compound; for viability, T/C: stronger effect = lower value
How it was run: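 Three-cell-type spheroids modelling solid tumor plus stroma served as the readout system; POL inhibitors were tested individually and in combination, concentration ranges set by clinical Cmax where known.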

[1] = second compound 0.0316 µM, first compound 0.0316 µM
[2] = second compound 0.0316 µM, first compound 0.1 µM
[3] = second compound 0.0316 µM, first compound 0.316 µM
[4] = second compound 0.0316 µM, first compound 1 µM
[5] = second compound 0.0316 µM, first compound 3.16 µM
[6] = second compound 0.0316 µM, first compound 10 µM
[7] = second compound 0.1 µM, first compound 0.0316 µM
[8] = second compound 0.1 µM, first compound 0.1 µM
[9] = second compound 0.1 µM, first compound 0.316 µM
[10] = second compound 0.1 µM, first compound 1 µM
[11] = second compound 0.1 µM, first compound 3.16 µM
[12] = second compound 0.1 µM, first compound 10 µM
[13] = second compound 0.316 µM, first compound 0.0316 µM
[14] = second compound 0.316 µM, first compound 0.1 µM
[15] = second compound 0.316 µM, first compound 0.316 µM
[16] = second compound 0.316 µM, first compound 1 µM
[17] = second compound 0.316 µM, first compound 3.16 µM
[18] = second compound 0.316 µM, first compound 10 µM
[19] = second compound 1 µM, first compound 0.0316 µM
[20] = second compound 1 µM, first compound 0.1 µM
[21] = second compound 1 µM, first compound 0.316 µM
[22] = second compound 1 µM, first compound 1 µM
[23] = second compound 1 µM, first compound 3.16 µM
[24] = second compound 1 µM, first compound 10 µM
[25] = second compound 3.16 µM, first compound 0.0316 µM
[26] = second compound 3.16 µM, first compound 0.1 µM
[27] = second compound 3.16 µM, first compound 0.316 µM
[28] = second compound 3.16 µM, first compound 1 µM
[29] = second compound 3.16 µM, first compound 3.16 µM
[30] = second compound 3.16 µM, first compound 10 µM
[31] = second compound 10 µM, first compound 0.0316 µM
[32] = second compound 10 µM, first compound 0.1 µM
[33] = second compound 10 µM, first compound 0.316 µM
[34] = second compound 10 µM, first compound 1 µM
[35] = second compound 10 µM, first compound 3.16 µM
[36] = second compound 10 µM, first compound 10 µM
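Note: spheroids exposed to compounds for seven days before readout.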
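Throughout, for viability, T/C: 100% = DMSO vehicle control viability.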

## CC1COCCN1c1cc(-c2ccnn2C)c2ccnc(-c3ccn[nH]3)c2n1 (stereo not drawn) + Cc1cccc(N(C)C(=O)C2C(O)CCN2c2nc(C)cc(C(F)(F)F)c2C#N)c1
Second compound 0.0316 µM
  pIC50: 6.25
Second compound 0.1 µM
  pIC50: 6.40
Second compound 0.316 µM
  pIC50: 6.51
Second compound 1 µM
  pIC50: 6.32
Second compound 3.16 µM
  pIC50: 6.54
Second compound 10 µM
  pIC50: 6.08
[1]
  viability, T/C: 91%
[2]
  viability, T/C: 79.8%
[3]
  viability, T/C: 50.9%
[4]
  viability, T/C: 49.7%
[5]
  viability, T/C: 53.6%
[6]
  viability, T/C: 43.6%
[7]
  viability, T/C: 95.5%
[8]
  viability, T/C: 81.1%
[9]
  viability, T/C: 51.2%
[10]
  viability, T/C: 44.3%
[11]
  viability, T/C: 49.4%
[12]
  viability, T/C: 43.3%
[13]
  viability, T/C: 87.7%
[14]
  viability, T/C: 80.3%
[15]
  viability, T/C: 49.5%
[16]
  viability, T/C: 47.8%
[17]
  viability, T/C: 51.6%
[18]
  viability, T/C: 40.8%
[19]
  viability, T/C: 92.9%
[20]
  viability, T/C: 76.9%
[21]
  viability, T/C: 52%
[22]
  viability, T/C: 46.2%
[23]
  viability, T/C: 51.4%
[24]
  viability, T/C: 37.4%
[25]
  viability, T/C: 89%
[26]
  viability, T/C: 76.8%
[27]
  viability, T/C: 47.2%
[28]
  viability, T/C: 46.7%
[29]
  viability, T/C: 55.8%
[30]
  viability, T/C: 42%
[31]
  viability, T/C: 82.3%
[32]
  viability, T/C: 72.3%
[33]
  viability, T/C: 50.6%
[34]
  viability, T/C: 49.7%
[35]
  viability, T/C: 49.8%
[36]
  viability, T/C: 36.8%

## CC1COCCN1c1cc(C2(S(C)(=N)=O)CC2)nc(-c2ccnc3[nH]ccc23)n1 (stereo not drawn) + Cc1cccc(N(C)C(=O)C2C(O)CCN2c2nc(C)cc(C(F)(F)F)c2C#N)c1
Second compound 0.0316 µM
  pIC50: < 5.00
Second compound 0.1 µM
  pIC50: < 5.00
Second compound 0.316 µM
  pIC50: < 5.00
Second compound 1 µM
  pIC50: < 5.00
Second compound 3.16 µM
  pIC50: < 5.00
Second compound 10 µM
  pIC50: < 5.00
[1]
  viability, T/C: 105%
[2]
  viability, T/C: 102%
[3]
  viability, T/C: 104%
[4]
  viability, T/C: 92.4%
[5]
  viability, T/C: 83.4%
[6]
  viability, T/C: 70.5%
[7]
  viability, T/C: 98.6%
[8]
  viability, T/C: 101%
[9]
  viability, T/C: 97.9%
[10]
  viability, T/C: 101%
[11]
  viability, T/C: 84.7%
[12]
  viability, T/C: 70.4%
[13]
  viability, T/C: 97.3%
[14]
  viability, T/C: 97.8%
[15]
  viability, T/C: 103%
[16]
  viability, T/C: 94.5%
[17]
  viability, T/C: 94.2%
[18]
  viability, T/C: 75%
[19]
  viability, T/C: 102%
[20]
  viability, T/C: 98.2%
[21]
  viability, T/C: 101%
[22]
  viability, T/C: 92.1%
[23]
  viability, T/C: 89.1%
[24]
  viability, T/C: 69.2%
[25]
  viability, T/C: 101%
[26]
  viability, T/C: 103%
[27]
  viability, T/C: 99.9%
[28]
  viability, T/C: 96.6%
[29]
  viability, T/C: 92.2%
[30]
  viability, T/C: 68.3%
[31]
  viability, T/C: 95%
[32]
  viability, T/C: 89.6%
[33]
  viability, T/C: 96%
[34]
  viability, T/C: 96.6%
[35]
  viability, T/C: 80.5%
[36]
  viability, T/C: 59.1%

## CCc1cc2c(N3CCc4c(cc(Cn5ccnc5)cc4-c4cn(C)nc4C(F)(F)F)C3=O)ccnc2c(OC)n1 + Cc1cccc(N(C)C(=O)C2C(O)CCN2c2nc(C)cc(C(F)(F)F)c2C#N)c1
Second compound 0.0316 µM
  pIC50: < 5.00
Second compound 0.1 µM
  pIC50: < 5.00
Second compound 0.316 µM
  pIC50: < 5.00
Second compound 1 µM
  pIC50: < 5.00
Second compound 3.16 µM
  pIC50: < 5.00
Second compound 10 µM
  pIC50: < 5.00
[1]
  viability, T/C: 98%
[2]
  viability, T/C: 95.5%
[3]
  viability, T/C: 101%
[4]
  viability, T/C: 97.1%
[5]
  viability, T/C: 93.1%
[6]
  viability, T/C: 87%
[7]
  viability, T/C: 126%
[8]
  viability, T/C: 96.4%
[9]
  viability, T/C: 90.6%
[10]
  viability, T/C: 92.5%
[11]
  viability, T/C: 95.2%
[12]
  viability, T/C: 89.4%
[13]
  viability, T/C: 105%
[14]
  viability, T/C: 109%
[15]
  viability, T/C: 102%
[16]
  viability, T/C: 98%
[17]
  viability, T/C: 98.8%
[18]
  viability, T/C: 83.7%
[19]
  viability, T/C: 101%
[20]
  viability, T/C: 104%
[21]
  viability, T/C: 85.1%
[22]
  viability, T/C: 93.7%
[23]
  viability, T/C: 93%
[24]
  viability, T/C: 90.2%
[25]
  viability, T/C: 115%
[26]
  viability, T/C: 106%
[27]
  viability, T/C: 83.3%
[28]
  viability, T/C: 92.2%
[29]
  viability, T/C: 103%
[30]
  viability, T/C: 96.1%
[31]
  viability, T/C: 94.9%
[32]
  viability, T/C: 87%
[33]
  viability, T/C: 99.5%
[34]
  viability, T/C: 89.3%
[35]
  viability, T/C: 91.7%
[36]
  viability, T/C: 77.3%

## COc1ccc([C@@H](O)c2cc(-c3ncnc4cc(N5CCOCC5)ccc34)c(F)cc2Cl)nn1 + Cc1cccc(N(C)C(=O)C2C(O)CCN2c2nc(C)cc(C(F)(F)F)c2C#N)c1
Second compound 0.0316 µM
  pIC50: < 5.00
Second compound 0.1 µM
  pIC50: < 5.00
Second compound 0.316 µM
  pIC50: < 5.00
Second compound 1 µM
  pIC50: < 5.00
Second compound 3.16 µM
  pIC50: < 5.00
Second compound 10 µM
  pIC50: < 5.00
[1]
  viability, T/C: 95.2%
[2]
  viability, T/C: 95.5%
[3]
  viability, T/C: 95.9%
[4]
  viability, T/C: 94.9%
[5]
  viability, T/C: 93.4%
[6]
  viability, T/C: 81.5%
[7]
  viability, T/C: 101%
[8]
  viability, T/C: 99.3%
[9]
  viability, T/C: 94.7%
[10]
  viability, T/C: 92.9%
[11]
  viability, T/C: 92%
[12]
  viability, T/C: 80.1%
[13]
  viability, T/C: 105%
[14]
  viability, T/C: 111%
[15]
  viability, T/C: 92.1%
[16]
  viability, T/C: 99.3%
[17]
  viability, T/C: 87.4%
[18]
  viability, T/C: 80.9%
[19]
  viability, T/C: 108%
[20]
  viability, T/C: 101%
[21]
  viability, T/C: 91.6%
[22]
  viability, T/C: 93.4%
[23]
  viability, T/C: 85.5%
[24]
  viability, T/C: 83%
[25]
  viability, T/C: 95.1%
[26]
  viability, T/C: 92.3%
[27]
  viability, T/C: 97.4%
[28]
  viability, T/C: 95.6%
[29]
  viability, T/C: 78.1%
[30]
  viability, T/C: 77.1%
[31]
  viability, T/C: 94.8%
[32]
  viability, T/C: 94.7%
[33]
  viability, T/C: 93%
[34]
  viability, T/C: 83.5%
[35]
  viability, T/C: 83.6%
[36]
  viability, T/C: 78.3%
